Test results from patent publication US6723741B2, “Benzimidazoles and benzothiazoles and uses thereof” (Synaptic Pharmaceutical Corporation, priority 1996, dated 2004).
Structures can show the parent of a compound that is named as a salt.

Tests used:
[1] = target: human α2C adrenergic receptor (Homo sapiens, UniProt P18825); assay: Radioligand binding assay, [3H]rauwolscine competition
[2] = target: human α2A adrenergic receptor (Homo sapiens, UniProt P08913); assay: Agonist activity: inhibition of forskolin-stimulated cAMP synthesis
[3] = target: T1, human α2B adrenergic receptor (Homo sapiens, UniProt P18089); assay: Radioligand binding assay, [3H]rauwolscine competition
T1 construct: expressed in transfected cells
T1 sequence (P18089 1-450): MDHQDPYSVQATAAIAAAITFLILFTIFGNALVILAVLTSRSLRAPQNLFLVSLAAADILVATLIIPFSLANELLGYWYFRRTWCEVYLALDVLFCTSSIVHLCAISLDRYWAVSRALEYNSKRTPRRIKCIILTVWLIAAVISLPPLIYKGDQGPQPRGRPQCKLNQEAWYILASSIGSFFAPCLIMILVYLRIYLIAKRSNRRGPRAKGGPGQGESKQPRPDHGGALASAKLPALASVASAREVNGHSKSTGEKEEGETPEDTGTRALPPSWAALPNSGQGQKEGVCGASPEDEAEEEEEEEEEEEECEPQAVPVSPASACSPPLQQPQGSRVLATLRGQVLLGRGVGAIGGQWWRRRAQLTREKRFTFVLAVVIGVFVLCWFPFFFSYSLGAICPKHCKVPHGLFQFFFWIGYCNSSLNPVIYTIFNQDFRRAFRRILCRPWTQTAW

[4] = target: T2, human α2C adrenergic receptor (Homo sapiens, UniProt P18825); assay: as above
T2 construct: The entire coding region of α2C (1383 bp), including 2 bp of 5′ UT and 400 bp of 3′ UT; expressed in transfected cells
T2 sequence (P18825 1-462): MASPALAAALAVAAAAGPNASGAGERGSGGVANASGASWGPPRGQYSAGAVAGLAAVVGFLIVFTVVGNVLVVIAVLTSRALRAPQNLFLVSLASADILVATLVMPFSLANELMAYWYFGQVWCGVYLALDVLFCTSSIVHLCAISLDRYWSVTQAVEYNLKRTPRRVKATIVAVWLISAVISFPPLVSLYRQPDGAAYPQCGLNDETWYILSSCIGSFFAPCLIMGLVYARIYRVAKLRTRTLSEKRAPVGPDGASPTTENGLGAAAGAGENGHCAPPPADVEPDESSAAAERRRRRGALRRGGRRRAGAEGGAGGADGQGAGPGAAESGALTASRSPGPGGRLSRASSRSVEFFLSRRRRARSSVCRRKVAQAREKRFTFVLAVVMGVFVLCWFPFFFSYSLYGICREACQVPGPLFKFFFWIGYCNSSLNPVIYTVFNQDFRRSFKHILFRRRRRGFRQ

[5] = target: T1, human α2B adrenergic receptor; assay: Agonist activity: inhibition of forskolin-stimulated cAMP synthesis; format: cell-based
[6] = target: T2, human α2C adrenergic receptor; assay: as above; format: cell-based
[7] = target: T3, human α2A adrenergic receptor (Homo sapiens, UniProt P08913); assay: Radioligand binding assay, [3H]rauwolscine competition; set-up: expressed in transfected cells
T3 sequence (P08913 1-465): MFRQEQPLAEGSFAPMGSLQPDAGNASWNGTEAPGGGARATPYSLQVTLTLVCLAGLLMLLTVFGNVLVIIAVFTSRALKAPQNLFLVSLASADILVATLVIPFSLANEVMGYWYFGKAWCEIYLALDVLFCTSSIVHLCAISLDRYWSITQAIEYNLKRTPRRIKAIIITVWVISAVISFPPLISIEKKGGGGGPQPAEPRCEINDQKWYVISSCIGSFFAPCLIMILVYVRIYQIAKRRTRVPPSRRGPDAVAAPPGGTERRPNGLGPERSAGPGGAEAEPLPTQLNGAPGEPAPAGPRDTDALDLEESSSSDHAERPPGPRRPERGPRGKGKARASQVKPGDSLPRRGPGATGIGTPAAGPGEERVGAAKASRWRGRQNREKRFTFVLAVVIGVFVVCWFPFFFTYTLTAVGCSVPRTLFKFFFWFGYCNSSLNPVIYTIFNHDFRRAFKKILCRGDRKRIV

[8] = target: T3, human α2A adrenergic receptor; assay: Agonist activity: inhibition of forskolin-stimulated cAMP synthesis; remark: listed apart in the source

| Compound | melting point | also measured |
| --- | --- | --- |
| c1nc2ccc(NC3=NCCN3)cc2s1 | – | Ki [1]: 102 nM; EC50 [2]: 417 nM |
| c1nc2ccc(NC3=NCCS3)cc2s1 | – | Ki [1]: 1070 nM |
| Cc1c(NC2=NCCN2)ccc2ncsc12 (as salt: fumarate) | 213 to 215 °C | – |
| Brc1cc(NC2=NCCN2)cc2ncsc12 (as salt: fumarate) | 209 to 211 °C | – |
| Clc1cc(NC2=NCCN2)cc2ncsc12 (as salt: fumarate) | 203 to 205 °C | – |
| Cc1cc(NC2=NCCN2)cc2ncsc12 (as salt: fumarate) | 179 to 181 °C | – |
| CCc1cc(NC2=NCCN2)cc2ncsc12 (as salt: fumarate) | 218 to 220 °C | – |
| Brc1cc(NC2=NCCN2)cc2cc[nH]c12 (as salt: fumarate) [Example 2, 7-Bromo-5-(2-imidazolin-2-ylamino)indole] | 272 to 273 °C | – |
| Cc1cc(NC2=NCCS2)cc2cc[nH]c12 (as salt: fumarate) [Example 8, 7-Methyl-5-(2-thiazolin-2-ylamino)indole] | 200 to 202 °C | – |
| c1nc2cc(NC3=NCCN3)ccc2s1 (as salt: fumarate) [Example 13, 5-(2-Imidazolin-2-ylamino)benzothiazole] | 201 to 203 °C | – |
| c1nc2ccc(NC3=NCCN3)cc2s1 (as salt: fumarate) [Example 14, 6-(2-Imidazolin-2-ylamino)benzothiazole] | 215 to 216 °C | – |
| c1nc2ccc(NC3=NCCS3)cc2s1 (as salt: fumarate) [Example 15, 6-(2-Thiazolin-2-ylamino)benzothiazole] | 181 to 183 °C | – |
| Cc1cc(NC2=NCCS2)cc2cc[nH]c12 [Example 8, 7-Methyl-5-(2-thiazolin-2-ylamino)indole] | – | Ki [3]: 4.9 nM; Ki [4]: 24 nM; EC50 ([5]; inhibition of forskolin-stimulated cAMP, stably transfected cells expressing human α2B, read-out: pEC50 Alpha-2 B (converted)): 44.7 nM; I.A (Intrinsic Activity) Alpha-2 B ([5]; maximum activity relative to maximum activity induced by norepinephrine, human α2B): 0.80; EC50 ([6]; inhibition of forskolin-stimulated cAMP, stably transfected cells expressing human α2C, read-out: pEC50 Alpha-2 C (converted)): 2.19 nM; I.A (Intrinsic Activity) Alpha-2 C ([6]; maximum activity relative to maximum activity induced by norepinephrine, human α2C): 1.00; Ki [7]: 0.832 nM; EC50 [8]: 13.8 nM; I.A (Intrinsic Activity) Alpha-2 A ([8]; maximum activity relative to maximum activity induced by norepinephrine, human α2A): 0.60 |

Further lines, with some results ahead:

| melting point | Compound | also measured |
| --- | --- | --- |
| 215 to 218 °C | Cc1c(NC2=NCCN2)ccc2[nH]ccc12 (as salt: fumarate) | – |
| 261 to 262 °C | Clc1cc(NC2=NCCN2)cc2cc[nH]c12 (as salt: fumarate) | – |
| 224 to 226 °C | Cc1cc(NC2=NCCN2)cc2cc[nH]c12 (as salt: fumarate) | – |
| 154 to 156 °C | C=C(C)c1cc(NC2=NCCN2)cc2cc[nH]c12 (as salt: maleate) | – |
| 254 to 255 °C | CC(C)c1cc(NC2=NCCN2)cc2cc[nH]c12 (as salt: succinate) | – |
